Assays:
DLD-1 = assay: Cytotoxicity against human DLD1 cells assessed as growth inhibition; type: functional, cell-based
HCT-116 [1] = assay: Cytotoxicity against human HCT-116 cells; type: functional, cell-based
A-375 = assay: Antiproliferative activity against human A-375 cells assessed as reduction in cell viability incubated for 72 hrs by MTT assay; type: functional, cell-based; conditions: A-375, 72 h
MCF7 [2] = assay: Antiproliferative activity against human MCF7 cells assessed as reduction in cell viability incubated for 72 hrs by MTT assay; type: functional, cell-based; conditions: MCF7, 72 h
SGC-7901 = assay: Antiproliferative activity against human SGC-7901 cells assessed as reduction in cell viability incubated for 72 hrs by MTT assay; type: functional, cell-based; conditions: SGC-7901, 72 h
HepG2 [3] = assay: Antiproliferative activity against human HepG2 cells assessed as reduction in cell viability incubated for 72 hrs by MTT assay; type: functional, cell-based; conditions: HepG2, 72 h
Focal adhesion kinase 1 [4] = molecular target: T1, Focal adhesion kinase 1 (Homo sapiens, UniProt Q05397); assay: Inhibition of FAK (unknown origin)
Target sequence in this assay (Q05397 whole entry): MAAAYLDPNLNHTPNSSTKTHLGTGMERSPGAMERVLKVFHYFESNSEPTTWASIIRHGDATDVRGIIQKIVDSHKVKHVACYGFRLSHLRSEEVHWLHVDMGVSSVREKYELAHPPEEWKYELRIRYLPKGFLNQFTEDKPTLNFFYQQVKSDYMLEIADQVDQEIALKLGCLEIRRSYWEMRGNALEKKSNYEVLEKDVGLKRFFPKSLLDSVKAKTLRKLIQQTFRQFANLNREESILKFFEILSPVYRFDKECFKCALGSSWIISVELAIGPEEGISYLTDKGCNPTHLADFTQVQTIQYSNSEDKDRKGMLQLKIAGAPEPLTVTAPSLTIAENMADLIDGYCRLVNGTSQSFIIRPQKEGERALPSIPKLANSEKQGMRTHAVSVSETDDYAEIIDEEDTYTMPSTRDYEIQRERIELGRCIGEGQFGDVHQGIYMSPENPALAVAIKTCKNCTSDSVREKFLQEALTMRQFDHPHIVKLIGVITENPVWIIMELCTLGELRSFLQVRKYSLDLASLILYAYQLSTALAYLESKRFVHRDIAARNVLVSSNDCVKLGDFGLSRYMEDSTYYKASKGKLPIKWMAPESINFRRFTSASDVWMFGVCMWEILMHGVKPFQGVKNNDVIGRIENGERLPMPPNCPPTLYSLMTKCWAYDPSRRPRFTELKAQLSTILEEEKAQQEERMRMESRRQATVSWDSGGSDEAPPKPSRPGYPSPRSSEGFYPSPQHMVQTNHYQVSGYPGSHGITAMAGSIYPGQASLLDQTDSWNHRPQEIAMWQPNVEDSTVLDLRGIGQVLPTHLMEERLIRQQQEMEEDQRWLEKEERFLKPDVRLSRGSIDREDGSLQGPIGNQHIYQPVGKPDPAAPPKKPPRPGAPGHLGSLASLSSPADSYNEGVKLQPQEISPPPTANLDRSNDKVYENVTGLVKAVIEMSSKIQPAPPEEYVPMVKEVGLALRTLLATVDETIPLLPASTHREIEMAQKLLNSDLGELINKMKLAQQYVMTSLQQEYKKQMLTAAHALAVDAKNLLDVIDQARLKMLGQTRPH

Insulin receptor = Insulin receptor (Homo sapiens, UniProt P06213); assay: Inhibition of INSR (unknown origin)
Chain of Insulin receptor (P06213 28-758 limits assumed): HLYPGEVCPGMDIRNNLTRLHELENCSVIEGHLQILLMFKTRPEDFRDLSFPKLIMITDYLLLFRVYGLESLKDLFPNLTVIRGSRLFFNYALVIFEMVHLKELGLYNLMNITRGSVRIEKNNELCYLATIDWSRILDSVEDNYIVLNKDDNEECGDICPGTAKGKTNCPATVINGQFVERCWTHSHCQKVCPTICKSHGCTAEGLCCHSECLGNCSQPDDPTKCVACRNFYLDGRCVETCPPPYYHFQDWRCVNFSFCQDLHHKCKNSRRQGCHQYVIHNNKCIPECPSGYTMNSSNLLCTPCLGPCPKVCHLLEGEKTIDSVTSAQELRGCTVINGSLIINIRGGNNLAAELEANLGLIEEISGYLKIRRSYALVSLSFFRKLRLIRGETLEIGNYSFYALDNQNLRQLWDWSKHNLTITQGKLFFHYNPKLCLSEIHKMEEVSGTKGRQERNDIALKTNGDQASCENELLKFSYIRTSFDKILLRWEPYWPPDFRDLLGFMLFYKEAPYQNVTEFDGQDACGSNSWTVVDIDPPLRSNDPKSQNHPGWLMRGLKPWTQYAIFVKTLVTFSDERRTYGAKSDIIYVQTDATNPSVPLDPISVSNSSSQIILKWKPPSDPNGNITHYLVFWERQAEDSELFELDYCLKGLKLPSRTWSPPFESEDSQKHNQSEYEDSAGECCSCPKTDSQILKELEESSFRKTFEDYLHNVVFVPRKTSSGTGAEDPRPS
Chain of Insulin receptor (P06213 763-1382 limits assumed): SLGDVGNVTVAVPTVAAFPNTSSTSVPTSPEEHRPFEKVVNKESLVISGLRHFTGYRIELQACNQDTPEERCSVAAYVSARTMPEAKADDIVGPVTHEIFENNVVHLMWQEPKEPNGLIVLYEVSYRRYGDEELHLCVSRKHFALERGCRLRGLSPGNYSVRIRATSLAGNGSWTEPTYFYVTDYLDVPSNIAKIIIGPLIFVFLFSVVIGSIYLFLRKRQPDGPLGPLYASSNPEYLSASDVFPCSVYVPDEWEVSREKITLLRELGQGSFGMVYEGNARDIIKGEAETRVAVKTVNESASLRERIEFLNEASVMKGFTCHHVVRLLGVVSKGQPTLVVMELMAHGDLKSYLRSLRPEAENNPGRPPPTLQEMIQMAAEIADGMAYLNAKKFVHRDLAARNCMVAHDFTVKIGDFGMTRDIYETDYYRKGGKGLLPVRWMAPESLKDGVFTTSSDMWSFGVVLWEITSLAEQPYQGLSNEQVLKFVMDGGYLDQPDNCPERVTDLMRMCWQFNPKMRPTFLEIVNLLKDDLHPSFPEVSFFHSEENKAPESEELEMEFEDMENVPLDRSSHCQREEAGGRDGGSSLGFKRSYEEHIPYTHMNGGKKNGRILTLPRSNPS

MDA-MB-231 [5] = assay: Antiproliferative activity against human MDA-MB-231 cells assessed as reduction in cell viability by MTT assay; type: functional, cell-based
HeLa = assay: Antiproliferative activity against human HeLa cells assessed as reduction in cell viability by MTT assay; type: functional, cell-based
HCT-116 [6] = assay: Antiproliferative activity against human HCT-116 cells assessed as reduction in cell viability by MTT assay; type: functional, cell-based
[7] = molecular target: T2, von Hippel-Lindau disease tumor suppressor/Bromodomain-containing protein 4 (Homo sapiens, UniProt O60885+P40337); assay: PROTAC activity at BRD4/VHL E3 ligase in human HEK293 cells assessed as degradation of BRD4 incubated for 18 hrs by Nano-Glo HiBiT assay; type: cell-based
T2 sequence (P40337 whole entry, looked up, other chains not shown): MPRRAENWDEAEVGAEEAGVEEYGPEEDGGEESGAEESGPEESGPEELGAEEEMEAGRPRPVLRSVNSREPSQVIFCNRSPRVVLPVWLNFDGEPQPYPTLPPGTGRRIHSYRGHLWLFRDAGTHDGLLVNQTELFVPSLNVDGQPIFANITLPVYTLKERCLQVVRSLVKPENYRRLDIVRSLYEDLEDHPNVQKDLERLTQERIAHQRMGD

[8] = Half life in human at 20 mg/kg, po; type: ADME, organism-based; conditions: in vivo
KYSE-450 = assay: Antiproliferative activity against human KYSE-450 cells; type: functional, cell-based
[9] = Antiproliferative activity against human PC-3 cells; type: functional, cell-based
A549 [10] = assay: Antiproliferative activity against human A549 cells; type: functional, cell-based
MGC-803 [11] = assay: Antiproliferative activity against human MGC-803 cells; type: functional, cell-based
ECa-109 cell line = assay: Antiproliferative activity against human EC109 cells; type: functional, cell-based
NCI-H520 = assay: Antiproliferative activity against human NCI-H520 cells; type: functional, cell-based
MCF7 [12] = assay: Antiproliferative activity against human MCF7 cells; type: functional, cell-based
MDA-MB-231 [13] = assay: Antiproliferative activity against human MDA-MB-231 cells; type: functional, cell-based
TE-1 = assay: Antiproliferative activity against human TE-1 cells; type: functional, cell-based
Histone deacetylase 3 = Histone deacetylase 3 (Homo sapiens, UniProt O15379); assay: Inhibition of HDAC3 (unknown origin)
Chain of Histone deacetylase 3 (O15379 whole entry): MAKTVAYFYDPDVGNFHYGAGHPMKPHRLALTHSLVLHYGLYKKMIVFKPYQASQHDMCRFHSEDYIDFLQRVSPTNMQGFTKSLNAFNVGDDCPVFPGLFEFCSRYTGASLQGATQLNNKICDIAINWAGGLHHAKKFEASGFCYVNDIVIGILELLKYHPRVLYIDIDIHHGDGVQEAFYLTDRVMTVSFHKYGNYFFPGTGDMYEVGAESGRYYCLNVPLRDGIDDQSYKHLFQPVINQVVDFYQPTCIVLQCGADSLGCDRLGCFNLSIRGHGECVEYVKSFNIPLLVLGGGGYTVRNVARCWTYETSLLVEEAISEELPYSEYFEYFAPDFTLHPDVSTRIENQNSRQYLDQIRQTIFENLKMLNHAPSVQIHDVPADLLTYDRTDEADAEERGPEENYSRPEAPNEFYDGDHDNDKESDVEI

HCT-116 [14] = assay: Antiproliferative activity against human HCT-116 cells; type: functional, cell-based
BGC-823 = assay: Antiproliferative activity against human BGC-823 cells; type: functional, cell-based
DU-145 = assay: Antiproliferative activity against human DU-145 cells; type: functional, cell-based
Histone deacetylase 1 = Histone deacetylase 1 (Homo sapiens, UniProt Q13547); assay: Inhibition of HDAC1 (unknown origin)
HGC-27 = assay: Antiproliferative activity against human HGC-27 cells; type: functional, cell-based
Histone deacetylase 2 = Histone deacetylase 2 (Homo sapiens, UniProt Q92769); assay: Inhibition of HDAC2 (unknown origin)
Chain of Histone deacetylase 2 (Q92769 whole entry): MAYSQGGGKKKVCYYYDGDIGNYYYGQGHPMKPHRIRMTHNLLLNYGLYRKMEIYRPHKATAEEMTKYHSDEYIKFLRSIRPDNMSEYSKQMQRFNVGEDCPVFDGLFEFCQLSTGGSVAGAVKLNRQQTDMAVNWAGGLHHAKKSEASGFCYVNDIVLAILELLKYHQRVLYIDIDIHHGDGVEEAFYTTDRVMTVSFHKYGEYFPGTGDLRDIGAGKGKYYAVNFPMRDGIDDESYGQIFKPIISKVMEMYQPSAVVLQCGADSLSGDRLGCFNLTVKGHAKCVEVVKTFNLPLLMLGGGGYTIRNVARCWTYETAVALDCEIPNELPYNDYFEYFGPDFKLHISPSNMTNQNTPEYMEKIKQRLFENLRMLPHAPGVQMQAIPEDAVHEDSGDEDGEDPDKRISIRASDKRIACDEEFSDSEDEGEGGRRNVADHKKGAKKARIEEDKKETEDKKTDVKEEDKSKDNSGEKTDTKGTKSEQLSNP

[15] = Half life in human plasma; type: ADME, cell-free
Focal adhesion kinase 1 [16] = molecular target: T1, Focal adhesion kinase 1; assay: Inhibition of FAK (unknown origin) at 0.5 uM relative to control
Target sequence in this assay (Q05397 2-1052 limits assumed): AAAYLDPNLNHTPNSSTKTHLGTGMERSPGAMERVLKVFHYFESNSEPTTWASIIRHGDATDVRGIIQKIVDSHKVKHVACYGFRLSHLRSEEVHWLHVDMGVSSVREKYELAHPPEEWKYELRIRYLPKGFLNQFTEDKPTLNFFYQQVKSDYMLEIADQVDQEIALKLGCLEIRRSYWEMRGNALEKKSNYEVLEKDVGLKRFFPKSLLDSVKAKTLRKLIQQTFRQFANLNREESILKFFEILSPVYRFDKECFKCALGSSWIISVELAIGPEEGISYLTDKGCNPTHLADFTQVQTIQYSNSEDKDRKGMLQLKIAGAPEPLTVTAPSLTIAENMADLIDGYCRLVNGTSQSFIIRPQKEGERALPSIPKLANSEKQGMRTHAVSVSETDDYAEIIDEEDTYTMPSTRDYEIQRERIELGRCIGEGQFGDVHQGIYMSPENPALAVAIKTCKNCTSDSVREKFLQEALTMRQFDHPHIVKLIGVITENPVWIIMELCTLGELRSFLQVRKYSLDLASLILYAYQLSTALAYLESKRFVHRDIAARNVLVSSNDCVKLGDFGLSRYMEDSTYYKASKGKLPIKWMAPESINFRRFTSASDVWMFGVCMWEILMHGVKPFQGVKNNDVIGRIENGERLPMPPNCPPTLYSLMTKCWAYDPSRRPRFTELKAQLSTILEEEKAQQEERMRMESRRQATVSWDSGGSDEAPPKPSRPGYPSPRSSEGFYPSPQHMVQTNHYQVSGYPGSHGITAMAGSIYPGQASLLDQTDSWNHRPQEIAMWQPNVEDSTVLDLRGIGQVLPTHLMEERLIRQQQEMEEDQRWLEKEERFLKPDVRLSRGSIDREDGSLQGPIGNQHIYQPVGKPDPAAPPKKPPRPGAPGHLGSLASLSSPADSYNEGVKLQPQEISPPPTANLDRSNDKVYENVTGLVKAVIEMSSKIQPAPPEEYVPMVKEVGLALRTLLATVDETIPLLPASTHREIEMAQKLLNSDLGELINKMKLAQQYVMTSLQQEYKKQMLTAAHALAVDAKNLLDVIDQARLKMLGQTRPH

[17] = molecular target: T2, von Hippel-Lindau disease tumor suppressor/Bromodomain-containing protein 4; assay: PROTAC activity at BRD4/VHL E3 ligase in human HEK293 cells assessed as maximal degradation of BRD4 at 10 nM incubated for 18 hrs by Nano-Glo HiBiT assay relative to control; type: cell-based
Focal adhesion kinase 1 [18] = molecular target: T1, Focal adhesion kinase 1; assay: Inhibition of FAK (unknown origin) at 0.1 uM relative to control
Target sequence in this assay (Q05397 2-1052 limits assumed): as above

MDA-MB-231 [19] = assay: Antiproliferative activity against human MDA-MB-231 cells assessed as reduction in cell viability incubated for 48 hrs by MTT assay; type: functional, cell-based; conditions: MDA-MB-231, 48 h
[20] = Half life in human at 10 mg/kg, po by LC-MS/MS analysis; type: ADME, organism-based; conditions: in vivo
PANC-1 = assay: Antiproliferative activity against human PANC-1 cells assessed as reduction in cell viability incubated for 48 hrs by MTT assay; type: functional, cell-based; conditions: PANC-1, 48 h
BXPC-3 = assay: Antiproliferative activity against human BXPC-3 cells assessed as reduction in cell viability incubated for 48 hrs by MTT assay; type: functional, cell-based; conditions: BXPC-3, 48 h
HCT-15 = assay: Antiproliferative activity against human HCT-15 cells assessed as reduction in cell viability incubated for 48 hrs by MTT assay; type: functional, cell-based; conditions: HCT-15, 48 h
A549 [21] = assay: Antiproliferative activity against human A549 cells assessed as reduction in cell viability incubated for 48 hrs by MTT assay; type: functional, cell-based; conditions: A549, 48 h
U-87 MG = assay: Antiproliferative activity against human U-87 MG cells assessed as reduction in cell viability incubated for 48 hrs by MTT assay; type: functional, cell-based, U-87MG ATCC
MCF7 [22] = assay: Antiproliferative activity against human MCF7 cells assessed as reduction in cell viability incubated for 48 hrs by MTT assay; type: functional, cell-based; conditions: MCF7, 48 h
HepG2 [23] = assay: Antiproliferative activity against human HepG2 cells assessed as reduction in cell viability incubated for 48 hrs by MTT assay; type: functional, cell-based; conditions: HepG2, 48 h
[24] = Half life in human at 1 mg/kg, iv by LC-MS/MS analysis; type: ADME, organism-based; conditions: in vivo
[25] = Oral bioavailability in human at 10 mg/kg; type: ADME, organism-based; conditions: in vivo
[26] = Antiproliferative activity against human BEAS-2B cells assessed as reduction in cell viability incubated for 48 hrs by MTT assay; type: toxicity, cell-based
[27] = Antiproliferative activity against HUVEC cells assessed as cell growth inhibition measured after 72 hrs by crystal violet staining based analysis; type: toxicity; conditions: human
MGC-803 [28] = assay: Antitumor activity against human MGC-803 cells xenografted in nude mouse assessed as tumor inhibition at 20 mg/kg, ip administered once every two days for 21 days relative to control; type: functional; parameters: scale not given: the % may be the effect or the level left; conditions: time 21 day

Clc1ccc(-c2cc(OCCCN3CCOCC3)c3cc(-c4ccco4)ccc3n2)cc1
IC50 (DLD-1): 2090 nM | IC50 (HCT-116 [1]): 2960 nM

COc1cc2nc(-c3ccc(C(F)(F)F)cc3)cc(OCCCNCC3CCCO3)c2cc1OC (stereo unspecified)
IC50 (DLD-1): 2480 nM | IC50 (HCT-116 [1]): 5680 nM

O=C(CSC1Nc2ccccc2C(=O)N1c1ccccc1)N1CCN(c2ccccc2Cl)CC1 (stereo unspecified)
IC50 (A-375): 7130 nM | IC50 (MCF7 [2]): 7920 nM | IC50 (SGC-7901): 11700 nM | IC50 (HepG2 [3]): 5560 nM

CCCS(=O)(=O)NCC(=O)N1CCN(c2ccc(Nc3ncc(Cl)c(Nc4ccccc4C(=O)NC)n3)cc2)CC1
IC50 (Focal adhesion kinase 1 [4]): 48 nM | IC50 (Insulin receptor): 107 nM | IC50 (MDA-MB-231 [5]): 180 nM | IC50 (HeLa): 190 nM | IC50 (HCT-116 [6]): 170 nM

Cc1ncsc1-c1ccc(CNC(=O)[C@@H]2C[C@@H](O)CN2C(=O)[C@@H](NC(=O)CCOCCOc2ccc(Nc3ncc(C(F)(F)F)c(NCc4cccc(N(C)S(C)(=O)=O)c4)n3)cc2)C(C)(C)C)cc1
DC50 [7]: 3 nM

O=C1CCc2cccc(Oc3nc(Nc4ccc(N5CCN(C(=S)SCCCN6CCOCC6)CC5)cc4)ncc3C(F)(F)F)c21
IC50 (Insulin receptor): > 1000 nM | IC50 (MDA-MB-231 [5]): 260 nM | IC50 (HeLa): 270 nM | IC50 (HCT-116 [6]): 190 nM

CNC(=O)c1ccccc1Nc1cc(Nc2ccc(N3CCN(CC(=O)N[C@H](C(=O)N4C[C@H](O)C[C@H]4C(=O)N[C@@H](C)c4ccc(-c5scnc5C)cc4)C(C)(C)C)CC3)cc2OC)ncc1C(F)(F)F
DC50 [7]: 8.4 nM

COc1cc(C(=O)NC2CCNCC2)ccc1Nc1nc(Oc2cccc3c2C(=O)CC3)c2cc[nH]c2n1
half-life [8]: 4.08 h

CNC(=O)c1ccccc1Nc1nc(Nc2ccc(NC(=O)CCCCCCC(=O)NO)cc2)ncc1Cl
IC50 (KYSE-450): 619 nM | IC50 [9]: 667 nM | IC50 (A549 [10]): 1790 nM | IC50 (MGC-803 [11]): 182 nM | IC50 (ECa-109 cell line): 981 nM | IC50 (NCI-H520): 2580 nM | IC50 (MCF7 [12]): 834 nM | IC50 (MDA-MB-231 [13]): 1890 nM | IC50 (TE-1): 1130 nM | IC50 (Histone deacetylase 3): 1050 nM | IC50 (HCT-116 [14]): 248 nM | IC50 (BGC-823): 194 nM | IC50 (DU-145): 467 nM | IC50 (Histone deacetylase 1): 526 nM | IC50 (HGC-27): 512 nM | IC50 (Histone deacetylase 2): 629 nM

COc1cc2nc(-c3ccc(C(F)(F)F)cc3)cc(OCCCNC3CCN(C)CC3)c2cc1OC
IC50 (DLD-1): 1790 nM | IC50 (HCT-116 [1]): 3280 nM

CNC(=O)c1ccccc1Nc1nc(Nc2ccc(N3CCN(C(=S)SCCCN4CCOCC4)CC3)cc2)ncc1Cl
IC50 (Focal adhesion kinase 1 [4]): 52 nM | IC50 (Insulin receptor): 168 nM | IC50 (MDA-MB-231 [5]): 4190 nM | IC50 (HeLa): 2680 nM | IC50 (HCT-116 [6]): 640 nM

CNC(=O)c1ccccc1Nc1nc(Nc2ccc(/C=C/C(=O)N3CCOCC3)cc2)ncc1Cl
IC50 (Focal adhesion kinase 1 [4]): 47.2 nM

CN(c1ncccc1CNc1nc(Nc2ccc(N3CCN(CCCCCCC(=O)NCCNc4cccc5c4C(=O)N(C4CCC(=O)NC4=O)C5=O)CC3)cc2)ncc1C(F)(F)F)S(C)(=O)=O (stereo unspecified)
half-life [15]: > 3.25 h | inhibition (Focal adhesion kinase 1 [16]): 96.9% | Emax [17]: 85% | inhibition (Focal adhesion kinase 1 [18]): 84.4%

Clc1cccc(Cn2ccc3cnc(NC4CCC(N5CCNCC5)CC4)nc32)c1 (stereo unspecified)
IC50 (MDA-MB-231 [19]): 1600 nM | half-life [20]: 3.8 h | IC50 (PANC-1): 3700 nM | IC50 (BXPC-3): 2300 nM | IC50 (HCT-15): 900 nM | IC50 (Focal adhesion kinase 1 [4]): 9.9 nM | IC50 (A549 [21]): 800 nM | IC50 (U-87 MG): 12700 nM | IC50 (MCF7 [22]): 2000 nM | IC50 (HepG2 [23]): 3500 nM | half-life [24]: 2.41 h | bioavailability [25]: 77.6% | IC50 at 48 h [26]: 7100 nM | IC50 at 72 h [27]: 6900 nM

COc1cc2nc(-c3ccc(C(F)(F)F)cc3)cc(OCCCN3CCN(C)CC3)c2cc1OC
IC50 (DLD-1): 2250 nM | IC50 (HCT-116 [1]): 3090 nM

CNC(=O)c1ccccc1Nc1nc(Nc2ccc(N3CCOCC3)cc2OC)ncc1Cl
Activity (MGC-803 [28]): 53.53%

CC(=O)NCCC(=O)Nc1cc(Nc2ncc(Br)c(Nc3ccc(NC(C)=O)cc3NC(C)=O)n2)ccc1OCCF
IC50 (Focal adhesion kinase 1 [4]): 3.7 nM
